We go through three compounds from BindingDB's records for doi:10.1021/jm970059p (University of Illinois At Chicago, 1998).

Structures are written as SMILES.

The experiment can be described thus: Inhibition of [3H]-TCP binding to PCP receptor obtained from tissue homogenate preparation of fresh whole rat brain minus cerebellum.

One may read the IC50 as the concentration that inhibits the measured activity by half. Low values mean greater potency in that assay, high ones weaker potency in that assay. In turn, `c1ccc2c(c1)C1CCCCC21N1CCCCC1` (stereo not drawn) [1-(1,3,4,8b-Tetrahydro-2H-biphenylen-4a-yl)-piperidine] had an IC50 of 4.27 µM. The value for `c1ccc2c(c1)C1CCC2(N2CCCCC2)CC1` [1-Tricyclo[6.2.2.0*2,7*]dodeca-2(7),3,5-trien-1-yl-piperidine] was 118 µM; that for `c1ccc2c(c1)C1CCC2(N2CCCCC2)C1` (stereo not drawn) [1-(3,4-Dihydro-2H-1,4-methano-naphthalen-1-yl)-piperidine] was 107 µM.
